Assay results reported in publication PMC9061180 (RSC Advances, 2019).
Where two headings read alike, the source gives them in different places.

Assays:
Type in all cases: cell-based
[1] = tested on: U87 (glioblastoma); experiment: cells; details: read-out: GI50 U87
[2] = tested on: SJ-G2 (glioblastoma); experiment: cells; details: read-out: GI50 SJ-G2
[3] = tested on: panel of eleven cancer cell lines and one normal cell line; experiment: MTT cytotoxicity, panel of eleven cancer cell lines and one normal cell line; details: for activity in initial screen: 25 μM drug concentration; for GI50: read-out: average GI50
[4] = tested on: MIA (pancreatic carcinoma); experiment: cells; details: read-out: GI50 MIA
[5] = tested on: SMA (spontaneous murine astrocytoma); experiment: cells; details: read-out: GI50 SMA
[6] = tested on: MCF-7 (breast carcinoma); experiment: cells; details: read-out: GI50 MCF-7
[7] = tested on: A2780 (ovarian carcinoma); experiment: cells; details: read-out: GI50 A2780
[8] = tested on: MCF10A (normal breast); experiment: cells; details: read-out: GI50 MCF10A
[9] = tested on: Du145 (prostate carcinoma); experiment: cells; details: read-out: GI50 Du145
[10] = tested on: BE2-C (neuroblastoma); experiment: cells; details: read-out: GI50 BE2-C
[11] = tested on: A431 (skin carcinoma); experiment: cells; details: read-out: GI50 A431
[12] = tested on: H460 (lung carcinoma); experiment: cells; details: read-out: GI50 H460
[13] = tested on: HT29 (colon carcinoma); experiment: cells; details: read-out: GI50 HT29

Compound	GI50 ([1]; 72 h) [µM]	GI50 ([2]; SJ-G2, 72 h) [µM]	activity in initial screen [3]	GI50 [3] [µM]	GI50 ([4]; 72 h) [µM]	GI50 ([5]; Mus musculus, 72 h) [µM]	GI50 ([6]; Homo sapiens, MCF7, 72 h) [µM]	GI50 ([7]; Homo sapiens, A2780, 72 h) [µM]	GI50 ([8]; Homo sapiens, MCF-10A, 72 h) [µM]	GI50 ([9]; Homo sapiens, DU-145, 72 h) [µM]	GI50 ([10]; Homo sapiens, BE(2)-C, 72 h) [µM]	GI50 ([11]; Homo sapiens, A-431, 72 h) [µM]	GI50 ([12]; Homo sapiens, NCI-H460, 72 h) [µM]	GI50 ([13]; Homo sapiens, HT-29, 72 h) [µM]	further results
C#CC(=O)N(c1ccccc1)C(C(=O)NCC(=O)OCC)c1ccccc1 (racemic) [Compound 18a, (RS)-Ethyl (2-phenyl-2-(N-phenylpropiolamido)acetyl)glycinate]	0.27 ± 0.03	3 ± 0.2	sufficiently promising activity	1.8	0.5 ± 0.1	0.48 ± 0.06	2.7 ± 0.13	0.33 ± 0.11	6.6 ± 1	0.32 ± 0.04	1.8 ± 0.4	2.1 ± 0.3	3 ± 0.4	0.47 ± 0.09	levels of toxicity ([3]; against HT29, U87, A2780, MIA and SMA cell lines): sub-micro molar
O=C(NC1CCCCC1)C(c1ccccc1)N(C(=O)CC(F)(F)F)c1ccccc1 (racemic) [Compound 16g, (RS)-N-(2-(Cyclohexylamino)-2-oxo-1-phenylethyl)-3,3,3-trifluoro-N-phenylpropanamide]	12 ± 1	11 ± 1	sufficiently promising activity	7.2	5.9 ± 0.1	10 ± 0.3	8 ± 2	6.5 ± 0.2	5.1 ± 0.5	4.8 ± 0.4	6.9 ± 0.6	4.3 ± 0.3	6 ± 0.5	5.9 ± 0.2	
C#CC(=O)N(c1ccccc1)C(C(=O)NC1CCCCC1)c1cccc(OC)c1OC (racemic) [Compound 20, (RS)-N-(2-(Cyclohexylamino)-1-(2,3-dimethoxyphenyl)-2-oxoethyl)-N-phenylpropiolamide]	0.71 ± 0.064	1.8 ± 0.088			0.46 ± 0.1		1.8 ± 0.067	0.49 ± 0.095	7.6 ± 1.8	0.66 ± 0.24	0.46 ± 0.038	1.2 ± 0.41	2.3 ± 0.3	0.47 ± 0.12	
CC(=O)N(c1ccccc1)C(C(=O)NCc1ccccc1)c1ccccc1 (racemic) [Compound 17e, (RS)-N-Benzyl-2-phenyl-2-(N-phenylacetamido)acetamide]	> 50	15 ± 4	sufficiently promising activity		8.5 ± 0.9	> 50	> 50	16	15 ± 1	> 50	25 ± 9	13 ± 1	21	> 50	
(RS)-N-(2-(Cyclohexylamino)-2-oxo-1-phenylethyl)-N-phenylbut-2-enamide [Compound 16d]			sufficiently promising activity												GI50 ([1]; Table 5, 72 h exposure, MTT): 16 µM; GI50 ([2]; Table 5, 72 h exposure, MTT): 13 ± 1 µM; GI50 ([3]; average over the cell lines of Table 5): 9.4 µM; GI50 ([4]; Table 5, 72 h exposure, MTT): 4.5 ± 0.3 µM; GI50 ([5]; Table 5, 72 h exposure, MTT): 14 ± 2 µM; GI50 ([6]; Table 5, 72 h exposure, MTT): 4.6 ± 1.3 µM; GI50 ([7]; Table 5, 72 h exposure, MTT): 12 µM; GI50 ([8]; Table 5, normal breast cell line, 72 h exposure, MTT): 7.5 ± 1.8 µM; GI50 ([9]; Table 5, 72 h exposure, MTT): 8.6 ± 2.3 µM; GI50 ([10]; Table 5, 72 h exposure, MTT): 2.6 ± 0.3 µM; GI50 ([11]; Table 5, 72 h exposure, MTT): 2.2 ± 0.1 µM; GI50 ([12]; Table 5, 72 h exposure, MTT): 13 ± 0.3 µM; GI50 ([13]; Table 5, 72 h exposure, MTT): 15 ± 1 µM
